Measured values from the NIST ThermoML archive (doi:10.1021/acs.jced.8b00854).

What was measured:
[1] = xn = mol fraction of the nth substance listed; conditions: 100 kPa, Liquid, Vibrating tube method
[2] = refractive index (Na D-line) (dimensionless); xn = mol fraction of the nth substance listed; conditions: 100 kPa, Liquid, Standard Abbe refractometry

CCCCCCn1cc[n+](C)c1.F[B-](F)(F)F [1-hexyl-3-methylimidazolium tetrafluoroborate] + O
Conditions	mass density, [1] [kg/m3]	refractive index, [2]
293.15 K, x1 = 0.3006	1117.21	1.415
293.15 K, x1 = 0.4005	1125.26	1.418
293.15 K, x1 = 0.4999	1132.22	1.4195
293.15 K, x1 = 0.6008	1136.97	1.422
293.15 K, x1 = 0.7004	1140.58	1.4245
293.15 K, x1 = 0.7996	1143.29	1.425
293.15 K, x1 = 0.8997	1145.34	1.427
303.15 K, x1 = 0.3006	1109.91	1.414
303.15 K, x1 = 0.4005	1117.8	1.415
303.15 K, x1 = 0.4999	1125.06	1.417
303.15 K, x1 = 0.6008	1129.88	1.42
303.15 K, x1 = 0.7004	1133.55	1.422
303.15 K, x1 = 0.7996	1136.29	1.4235
303.15 K, x1 = 0.8997	1138.36	1.425
313.15 K, x1 = 0.3006	1102.56	1.409
313.15 K, x1 = 0.4005	1110.53	1.412
313.15 K, x1 = 0.4999	1117.91	1.4165
313.15 K, x1 = 0.6008	1122.81	1.419
313.15 K, x1 = 0.7004	1126.54	1.421
313.15 K, x1 = 0.7996	1129.34	1.4215
313.15 K, x1 = 0.8997	1131.42	1.423
323.15 K, x1 = 0.3006	1095.15	1.408
323.15 K, x1 = 0.4005	1103.23	1.4115
323.15 K, x1 = 0.4999	1110.76	1.415
323.15 K, x1 = 0.6008	1115.77	1.417
323.15 K, x1 = 0.7004	1119.58	1.419
323.15 K, x1 = 0.7996	1122.43	1.42
323.15 K, x1 = 0.8997	1124.55	1.421
333.15 K, x1 = 0.3006	1087.71	1.4075
333.15 K, x1 = 0.4005	1095.9	1.4115
333.15 K, x1 = 0.4999	1103.62	1.415
333.15 K, x1 = 0.6008	1108.78	1.4155
333.15 K, x1 = 0.7004	1112.66	1.417
333.15 K, x1 = 0.7996	1115.58	1.418
333.15 K, x1 = 0.8997	1117.73	1.419
343.15 K, x1 = 0.3006	1080.23	1.4075
343.15 K, x1 = 0.4005	1088.51	1.4095
343.15 K, x1 = 0.4999	1096.51	1.4125
343.15 K, x1 = 0.6008	1101.81	1.414
343.15 K, x1 = 0.7004	1105.77	1.4145
343.15 K, x1 = 0.7996	1108.76	1.416
343.15 K, x1 = 0.8997	1110.94	1.4165
